The values that follow come from patent US7462717B2, “C6-and C9-substituted chromeno[4,3-c]isoxazoline derivatives and their use as anti-depressants” (Janssen Pharmaceutica N.V., priority 2002, dated 2008).

One assay addresses T1, hα2A receptor (Homo sapiens, UniProt P08913).
T1 construct: expressed in transfected cells
T1 sequence (P08913 1-465): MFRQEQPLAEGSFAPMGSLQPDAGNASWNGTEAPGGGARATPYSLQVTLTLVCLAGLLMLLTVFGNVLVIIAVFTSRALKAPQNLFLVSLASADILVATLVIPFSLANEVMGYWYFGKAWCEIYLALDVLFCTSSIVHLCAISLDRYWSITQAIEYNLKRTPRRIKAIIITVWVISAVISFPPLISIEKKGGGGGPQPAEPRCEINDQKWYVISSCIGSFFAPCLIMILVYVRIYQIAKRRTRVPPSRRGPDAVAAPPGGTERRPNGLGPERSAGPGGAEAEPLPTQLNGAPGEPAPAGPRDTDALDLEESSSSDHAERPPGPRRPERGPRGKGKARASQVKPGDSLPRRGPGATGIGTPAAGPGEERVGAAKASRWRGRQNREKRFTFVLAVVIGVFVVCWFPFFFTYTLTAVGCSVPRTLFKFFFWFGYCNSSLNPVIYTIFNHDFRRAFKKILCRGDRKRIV
The experiment in a line: Radioligand binding experiment for α2A-adrenergic receptor ([3H]-raulwolscine). As to conditions: membranes of CHO cells transfected with human α2A receptor; [3H]raulwolscine 1 nM. As for the experimental part: (§1) The interaction of the compounds of Formula (I) with hα2-receptors and h5-HT-transporters was assessed in in vitro radioligand binding experiments. In general, a low concentration of a radioligand with a high binding affinity for a particular receptor or transporter is incubated with a sample of a tissue preparation enriched in a particular receptor or transporter or with a preparation of cells expressing cloned human receptors in a buffered medium. During the incubation, the radioligand binds to the receptor or transporter. When equilibrium of binding is reached, the receptor bound radioactivity is separated from the non-bound radioactivity, and the receptor- or transporter-bound activity is counted. The interaction of the test compounds with the receptor is assessed in competition binding experiments. Various concentrations of the test compound are added to the incubation mixture containing the receptor- or transporter preparation and the radioligand. The test compound in proportion to its binding affinity and its concentration inhibits binding of the radioligand. The radioligand used for hα2A, hα2B and hα2C receptor binding was [^3H]-raulwolscine and for the h5-HT transporter was [^3H]paroxetine.
(§2) CHO cells, stabile transfected with human adrenergic-α2A-, -α2B or α2C receptor cDNA, were cultured in Dulbecco's Modified Eagle's Medium (DMEM)/Nutrient mixture Ham's F12 (ratio 1:1) (Gibco, Gent-Belgium) supplemented with 10% heat inactivated fetal calf serum (Life Technologies, Merelbeke-Belgium) and antibiotics (100 IU/ml penicillin G, 100 μg/ml streptomycin sulphate, 110 μg/ml pyruvic acid and 100 μg/ml L-glutamine). One day before collection, cells were induced with 5 mM sodiumbutyrate. Upon 80-90% of confluence, cells were scraped in phosphate buffered saline without Ca^2+ and Mg^2+ and collected by centrifugation at 1500×g for 10 min. The cells were homogenised in Tris-HCl 50 mM using an Ultraturrax homogenizer and centrifuged for 10 min at 23,500×g. The pellet was washed once by resuspension and rehomogenization and the final pellet was resuspended in Tris-HCl, divided in 1 ml aliquots and stored at −70° C.
(§3) Membranes were thawed and re-homogenized in incubation buffer (glycylglycine 25 mM, pH 8.0). In a total volume of 500 μl, 2-10 μg protein was incubated with [^3H]raulwolscine (NET-722) (New England Nuclear, USA) (1 nM final concentration) with or without competitor for 60 min at 25° C. followed by rapid filtration over GF/B filter using a Filtermate 196 harvester (Packard, Meriden, Conn.). Filters were rinsed extensively with ice-cold rinsing buffer (Tris-HCl 50 mM pH 7.4). Filter-bound radioactivity was determined by scintillation counting in a Topcount (Packard, Meriden, Conn.) and results were expressed as counts per minute (cpm). Non-specific binding was determined in the presence of 1 μM oxymetazoline for hα2A- and hα2B-receptors and 1 μM spiroxatrine for hα2C receptors.
(§4) Data from assays in the presence of compound were calculated as a percentage of total binding measured in the absence of test compound. Inhibition curves, plotting percent of total binding versus the log value of the concentration of the test compound, were automatically generated, and sigmoidal inhibition curves were fitted using non-linear regression. The pIC50 values of test compounds were derived from individual curves. All compounds according to Formula (I) produced an inhibition at least at the hα2A site (but often also at the hα2B and hα2C sites) and simultaneously at the 5-HT transporter site of more than 50% (PIC50) at a test concentration ranging between 10^−6 M and 10^−9 M in a concentration-dependent manner.

The next assay has as its target T2, h5-HT transporter (Homo sapiens, UniProt P31645).
T2 construct: Human platelet membranes (Oceanix Biosciences Corporation, Hanover, Md., USA) were thawed; tissue Oceanix Biosciences Corporation; host or cells: human platelet membranes
The assay is described as follows: Radioligand binding experiment for 5-HT transporter ([3H]paroxetine). As to conditions: human platelet membranes; [3H]paroxetine 0.5 nM; read-out: 5-HTT (converted). As to the method:
as §1
Human platelet membranes (Oceanix Biosciences Corporation, Hanover, Md., USA) were thawed, diluted in buffer (Tris-HCl 50 mM, 120 mM NaCl and 5 mM KCl) and quickly (max 3 s) homogenised with an Ultraturrax homogenizer. In a total volume of 250 μL, 50-100 μg protein was incubated with [^3H]paroxetine (NET-869) (New England Nuclear, USA) (0.5 nM final concentration) with or without competitor for 60 min at 25° C. Incubation was stopped by rapid filtration of the incubation mixture over GF/B filters, pre-wetted with 0.1% polyethyleneamine, using a Filtermate 196 harvester (Packard, Meriden, Conn.). Filters were rinsed extensively with ice-cold buffer and radioactivity on the filters was counted in a Topcount liquid scintillation counter (Packard, Meriden, Conn.). Data were expressed as cpm. Imipramine (at 1 μM final concentration) was used to determine the non-specific binding.
as §4

Another assay has as its target T3, hα2C receptor (Homo sapiens, UniProt P18825).
T3 construct: expressed in transfected cells
T3 sequence (P18825 1-462): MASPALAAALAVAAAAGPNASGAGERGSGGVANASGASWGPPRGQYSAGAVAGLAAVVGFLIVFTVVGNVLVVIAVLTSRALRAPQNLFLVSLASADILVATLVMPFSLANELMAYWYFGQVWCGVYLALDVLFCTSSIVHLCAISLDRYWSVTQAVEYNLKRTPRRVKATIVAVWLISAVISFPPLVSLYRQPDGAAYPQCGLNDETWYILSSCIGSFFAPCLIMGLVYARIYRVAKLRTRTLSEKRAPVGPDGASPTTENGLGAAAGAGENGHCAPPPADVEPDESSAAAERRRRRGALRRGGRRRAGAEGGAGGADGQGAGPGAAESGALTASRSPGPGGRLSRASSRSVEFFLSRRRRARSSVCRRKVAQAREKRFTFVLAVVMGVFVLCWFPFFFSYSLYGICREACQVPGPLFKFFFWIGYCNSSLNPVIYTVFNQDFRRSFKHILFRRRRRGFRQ
The experiment in a line: Radioligand binding experiment for α2C-adrenergic receptor ([3H]-raulwolscine). To be noted: membranes of CHO cells transfected with human α2C receptor; [3H]raulwolscine 1 nM. As to the method: as §1, §2, §3, §4

A further assay addresses T4, hα2B receptor (Homo sapiens, UniProt P18089).
T4 construct: expressed in transfected cells
T4 sequence (P18089 1-450): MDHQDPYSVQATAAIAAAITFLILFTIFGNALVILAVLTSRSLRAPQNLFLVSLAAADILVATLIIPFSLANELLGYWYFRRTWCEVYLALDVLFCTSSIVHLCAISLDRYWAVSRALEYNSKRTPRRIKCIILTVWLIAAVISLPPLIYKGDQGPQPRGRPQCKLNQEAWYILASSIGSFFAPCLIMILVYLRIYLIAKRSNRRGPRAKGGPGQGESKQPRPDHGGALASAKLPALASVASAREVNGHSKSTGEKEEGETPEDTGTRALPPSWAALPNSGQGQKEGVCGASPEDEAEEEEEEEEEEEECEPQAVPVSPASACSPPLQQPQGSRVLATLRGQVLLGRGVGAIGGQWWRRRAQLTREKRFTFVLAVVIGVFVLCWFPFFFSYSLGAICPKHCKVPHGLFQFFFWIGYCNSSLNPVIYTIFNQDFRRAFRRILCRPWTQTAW
The assay is described as follows: Radioligand binding experiment for α2B-adrenergic receptor ([3H]-raulwolscine). To be noted: membranes of CHO cells transfected with human α2B receptor; [3H]raulwolscine 1 nM. As to the method: as §1, §2, §3, §4

pIC50: −log10 of the molar value.

T2 sequence (P31645 whole entry): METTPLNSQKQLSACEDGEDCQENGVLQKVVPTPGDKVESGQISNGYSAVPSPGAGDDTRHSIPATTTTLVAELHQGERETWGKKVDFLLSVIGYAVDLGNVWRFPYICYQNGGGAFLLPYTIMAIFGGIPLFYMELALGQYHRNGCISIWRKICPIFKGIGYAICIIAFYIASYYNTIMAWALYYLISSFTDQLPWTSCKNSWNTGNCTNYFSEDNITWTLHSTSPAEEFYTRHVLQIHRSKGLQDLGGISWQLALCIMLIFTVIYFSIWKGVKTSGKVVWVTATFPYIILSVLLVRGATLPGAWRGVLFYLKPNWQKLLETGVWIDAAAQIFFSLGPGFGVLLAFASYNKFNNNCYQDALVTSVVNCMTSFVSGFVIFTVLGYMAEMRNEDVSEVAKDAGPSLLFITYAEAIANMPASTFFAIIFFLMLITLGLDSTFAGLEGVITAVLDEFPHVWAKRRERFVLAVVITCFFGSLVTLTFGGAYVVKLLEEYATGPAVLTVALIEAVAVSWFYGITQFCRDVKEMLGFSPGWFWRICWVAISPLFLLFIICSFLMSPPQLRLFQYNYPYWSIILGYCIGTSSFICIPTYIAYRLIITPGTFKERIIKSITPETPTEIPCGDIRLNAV

Usually pIC50 stands for the IC50 on a negative log10 scale, so that one unit is a factor of ten. Read a high pIC50 as a small IC50. Consider `CC(=Cc1ccccc1)CN1CCN(CC2ON=C3c4cccc(NCc5ccccc5)c4OCC32)CC1` (centres unmarked) [Compound 23], for which the pIC50 on hα2A receptor was 7.20; on hα2C receptor, 7.70; on hα2B receptor, 7.30. The IC50 at h5-HT transporter is 126 nM.
Taken in the same sequence, the figures for `COCC(=O)OCCOc1cccc2c1C1=NOC(CN3CCN(CC(C)=Cc4ccccc4)CC3)C1CO2` (centres unmarked) [Compound 14] were 8.60, 8.90, 8.50 and 1000 nM.
Taken in the same sequence, the figures for `COc1cc2c(c(N3CCC3=O)c1OC)OCC1C2=NOC1CN1CCN(CC(C)=Cc2ccc(F)cc2)CC1` (centres unmarked) [Compound 20] were 7.10, 7.50, 7.60 and 126 nM.
Regarding `COc1cc2c(c(Nc3ccncc3)c1OC)OC[C@@H]1C2=NO[C@H]1CN1CCN(C/C(C)=C/c2ccc(F)cc2)CC1` (relative stereo) [Compound 21, (3-{4-[3-(4-fluoro-phenyl)-2-methyl-allyl]-piperazin-1-ylmethyl}-7,8-dimethoxy-3a,4-dihydro-3H-chromeno [4,3-c]isoxazol-6-yl)-pyridin-4-yl-amine], the pIC50 on hα2A receptor is 7.20; on hα2C receptor it was 8.20; on hα2B receptor, 7.80. Also, on h5-HT transporter, the IC50 was 398 nM.
For the compound `C/C(=C\c1ccccc1)CN1CCN(C[C@@H]2ON=C3c4cccc(O)c4OC[C@H]32)CC1` (relative stereo) [Compound 7, 3-[4-(2-methyl-3-phenyl-allyl)-piperazin-1-ylmethyl]-3a,4-dihydro-3H-chromeno[4,3-c]isoxazol-6-ol], the pIC50 at hα2A receptor was 8.10; on hα2C receptor, 8.70; on hα2B receptor, 8.90. In addition, at h5-HT transporter, the IC50 is 50.1 nM.
Taken in the same sequence, the figures for `COc1cc2c(c(N3CCN(C)CC3)c1OC)OC[C@@H]1C2=NO[C@H]1CN1CCN(C/C(C)=C/c2ccccc2)CC1` (single isomer, unassigned) [Compound 2, 7,8-dimethoxy-3-[4-(2-methyl-3-phenyl-allyl)-piperazin-1-ylmethyl]-6-(4-methyl-piperazin-1-yl)-3a,4-dihydro-3H-chromeno [4,3-c]isoxazole] were 8.20, 9.10, 8.80 and 39.8 nM.
Taken in the same sequence, the figures for `COc1cccc2c1OC[C@@H]1C2=NO[C@H]1CN1CCN(C/C(C)=C/c2ccccc2)CC1` (relative stereo) [Compound 6, 6-methoxy-3-[4-(2-methyl-3-phenyl-allyl)-piperazin-1-ylmethyl]-3a,4-dihydro-3H-chromeno[4,3-c]isoxazole] were 8.10, 8.80, 8.70 and 50.1 nM.
On to `COCC(=O)OCCOc1cccc2c1OCC1C2=NOC1CN1CCN(CC(C)=Cc2ccccc2)CC1` (single isomer, unassigned) [Compound 25], for which the figures for the pIC50 at hα2A receptor, on hα2C receptor and at hα2B receptor were 7.40, 8.70 and 8.80, respectively. The IC50 on h5-HT transporter was 316 nM.
